Results on eleven molecules are retold here after ChEMBL document CHEMBL1201862, “PubChem BioAssay data set” (2004).

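Following 48 hours of exposure in 96-well plates, responses at five concentrations were used to interpolate endpoints linearly. At the GI50, growth is halved.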 The source made the active and inactive calls. Rule as the data show it: active = GI50 up to about 1.1 µM and inactive = higher.

Holding throughout (assay): growth of human tumour cells (NCI), 48 h
In assay [1] the test system is PC-3.
Assay [2] has as its system OVCAR-8.
Assay [3] deals with KM12.
Assay [4] has as its system IGROV-1.
In assay [5] the test system is OVCAR-4.
In assay [6] the test system is HL-60.
Assay [7] deals with SNB-19.
In assay [8] the test system is SN12C.
The test system of assay [9] is OVCAR-5.
Assay [10] concerns U-251.
The test system of assay [11] is RPMI-8226.
For assay [12], the system named is NCI-H23.
For assay [13], the system named is Hs-578T.
Assay [14] concerns NCI-H460.
For assay [15], the system named is HOP-92.
In assay [16] the test system is K562.
Assay [17] relates to RXF 393.
In assay [18] the test system is MDA-MB-435.
Assay [19] relates to SK-MEL-2.

On to `COC[C@@H](/N=C/C(C)(C)C)C(C)C`, for which the GI50 in assay [1], in [2], in assay [3], in assay [4], in assay [5] and in assay [6] was > 100 µM (inactive) throughout. Further, the GI50 in [7], in assay [8], in assay [9], in assay [10], in assay [11] and in [12] was > 100 µM (inactive) throughout. The GI50 in assay [13], in assay [14], in assay [15], in assay [16], in [17] and in [18] was > 100 µM (inactive) in each case. The GI50 in assay [19] is > 100 µM (inactive).

For `CCOC(=O)c1cc2cc(N(C(C)=O)C(C)=O)ccc2s1`, the GI50 in assay [1] was 20.5 µM (inactive); in assay [2] it was 26.8 µM (inactive); in assay [3], 40.5 µM (inactive); in assay [4], 38 µM (inactive); in assay [5], 31.3 µM (inactive); in assay [6] it was 13 µM (inactive). Also, the GI50 in assay [7] was 36.9 µM (inactive); in assay [8], 19.7 µM (inactive); in [9], 25.1 µM (inactive); in [10], 20.7 µM (inactive); in assay [11], 19.6 µM (inactive); in assay [12], 45.3 µM (inactive). Further, the GI50 in assay [13] is 16.9 µM (inactive); in assay [14], 38.5 µM (inactive); in assay [15], 27.1 µM (inactive); in assay [16], 24.7 µM (inactive); in assay [17], 13.5 µM (inactive); in assay [18] it was 37 µM (inactive). For the same molecule, the GI50 in assay [19] was 22.5 µM (inactive).

In the case of `CCCCCCCCC[C@@H]1C[C@@H]2CCC3C(C(=O)OCCCCNC(=O)OCc4ccccc4)=C(C)N=C(N1)N32` (some centres undefined), the GI50 in assay [1] was 2.47 µM (inactive); in [2] it was 2.58 µM (inactive); in assay [3], 3.13 µM (inactive); in assay [4], 2.43 µM (inactive); in assay [5], 3.97 µM (inactive); in assay [6] it was 1.98 µM (inactive). The GI50 in assay [7] was 6.18 µM (inactive); in assay [8] it was 3.13 µM (inactive); in assay [9], 5.78 µM (inactive); in assay [10] it was 2.9 µM (inactive); in assay [11] it was 2.13 µM (inactive); in assay [12], 2.56 µM (inactive). In addition, the GI50 in assay [13] is 2.51 µM (inactive); in assay [14], 3.22 µM (inactive); in [15], 2.78 µM (inactive); in assay [16], 1.77 µM (inactive); in [17], 2.55 µM (inactive); in assay [18], 2.78 µM (inactive). Besides, the GI50 in [19] is 1.92 µM (inactive).

Take `CCOC(=O)c1sc2nc(SC)nc3c2c1NCN3c1ccc2c(c1)OCCCO2`: the GI50 in [1] is > 100 µM (inactive); in assay [2], 7.46 µM (inactive); in [3] it was 4.18 µM (inactive); in [4], > 100 µM (inactive); in [5] it was > 100 µM (inactive); in assay [6], > 100 µM (inactive). Besides, the GI50 in [7] was 8.09 µM (inactive); in assay [8], 49.7 µM (inactive); in assay [9] it was > 100 µM (inactive); in assay [10], 7.57 µM (inactive); in assay [11], > 100 µM (inactive); in assay [12], 70.8 µM (inactive). Besides, the GI50 is 2.57 µM (inactive) in assay [13]; 25.7 µM (inactive) in assay [14]; 79.3 µM (inactive) in assay [15]; > 100 µM (inactive) in assay [16]; 11.7 µM (inactive) in assay [17]; > 100 µM (inactive) in assay [18]. For the same molecule, the GI50 in [19] was > 100 µM (inactive).

In the case of `COc1cccc(Nc2nc(NNC(=O)Cc3ccccc3)nc(NNC(=O)c3ccncc3)n2)c1`, the GI50 in [1] is 53.1 µM (inactive); in [2] it was > 10 µM (inactive); in assay [3] it was 71.3 µM (inactive); in assay [4], > 10 µM (inactive); in [5], > 10 µM (inactive); in assay [6], 68.1 µM (inactive). For the same molecule, the GI50 was > 100 µM (inactive) in assay [7]; > 10 µM (inactive) in assay [8]; > 100 µM (inactive) in [9]; > 10 µM (inactive) in assay [10]; > 10 µM (inactive) in [11]; > 10 µM (inactive) in assay [12]. Further, the GI50 in assay [13] was > 10 µM (inactive); in [14], > 10 µM (inactive); in assay [15], > 10 µM (inactive); in assay [16] it was > 10 µM (inactive); in assay [17] it was > 100 µM (inactive); in [18], 52.8 µM (inactive). Also, the GI50 in assay [19] is > 100 µM (inactive).

For the molecule `C(=N\c1ccc(-c2nc3ccccc3s2)cc1)/c1cccs1`, the GI50 in assay [1] is 38.1 µM (inactive); in assay [2], 49.2 µM (inactive); in assay [3], 40.1 µM (inactive); in assay [4], 49.8 µM (inactive); in [5] it was 39.9 µM (inactive); in [6], < 0.01 µM (active). Also, the GI50 was 88.3 µM (inactive) in assay [7]; 40.6 µM (inactive) in [8]; 89.1 µM (inactive) in [9]; 49.2 µM (inactive) in assay [10]; 33.4 µM (inactive) in assay [11]; 54.3 µM (inactive) in [12]. Also, the GI50 in [13] is 41.7 µM (inactive); in assay [14], 36.1 µM (inactive); in assay [15], 28.4 µM (inactive); in assay [16], 34.8 µM (inactive); in assay [17] it was 27.5 µM (inactive); in [18], 41.9 µM (inactive). Moreover, the GI50 in assay [19] was 38.2 µM (inactive).

In the case of `COc1c2c(c(CC=C(C)C)c3oc(=O)c(-c4ccc(O)cc4)c(O)c13)OC(C)(C)C=C2` [LONCHOCARPIC ACID], the GI50 in [1] was 31.5 µM (inactive); in assay [2] it was 29 µM (inactive); in assay [3], 14.4 µM (inactive); in [4] it was 18.4 µM (inactive); in assay [5], 17.7 µM (inactive); in [6] it was 21.2 µM (inactive). Further, the GI50 in assay [7] is 29.5 µM (inactive); in assay [8], 27.5 µM (inactive); in [9], 42.9 µM (inactive); in assay [10], 8.26 µM (inactive); in [11], 19.5 µM (inactive); in [12], 43.9 µM (inactive). The GI50 in [13] is 36.2 µM (inactive); in assay [14] it was 24 µM (inactive); in assay [15], 27.2 µM (inactive); in assay [16], 29.5 µM (inactive); in assay [17] it was 1.41 µM (inactive); in [18], 15.2 µM (inactive). In addition, the GI50 in assay [19] was 19.6 µM (inactive).

For `Cc1cc(S(=O)(=O)Nc2nnc3c(C(F)(F)F)cc(Cl)cn23)c(S)cc1Cl`, the GI50 in assay [1] is > 100 µM (inactive); in assay [2], > 100 µM (inactive); in assay [3] it was 94.8 µM (inactive); in assay [4] it was > 100 µM (inactive); in assay [5], 40.3 µM (inactive); in [6] it was > 100 µM (inactive). For the same molecule, the GI50 in assay [7] was 38.2 µM (inactive); in assay [8], > 100 µM (inactive); in assay [9], > 100 µM (inactive); in assay [10], 46.6 µM (inactive); in assay [11], > 100 µM (inactive); in assay [13], > 100 µM (inactive). The GI50 in assay [14] is 45.3 µM (inactive); in assay [15], > 100 µM (inactive); in assay [16], > 100 µM (inactive); in [17] it was > 100 µM (inactive); in assay [18], 76 µM (inactive); in [19], 64.4 µM (inactive).

With `O=C1NC(=O)C(COCc2ccccc2)C2=C1SCCC2` (centres undefined), the GI50 in [1], in [2], in assay [3], in assay [4], in [5] and in [6] was > 100 µM (inactive) in each case. Further, the GI50 in [7], in assay [10], in assay [11], in assay [12], in assay [13] and in [14] was > 100 µM (inactive) in each case. The GI50 in assay [15], in [16], in assay [17], in assay [18] and in assay [19] was > 100 µM (inactive) each time.

For `Oc1ccc2ccccc2c1/N=N\c1cccc2ccccc12`, the GI50 in assay [1] is > 100 µM (inactive); in assay [2], > 100 µM (inactive); in assay [3], > 100 µM (inactive); in [4] it was 29.9 µM (inactive); in [5], > 100 µM (inactive); in [6] it was 52.8 µM (inactive). In addition, the GI50 in assay [7], in [8], in [9], in [10], in assay [11] and in assay [12] was > 100 µM (inactive) throughout. Further, the GI50 in assay [13], in [15], in assay [16], in assay [17], in [18] and in [19] was > 100 µM (inactive) in each case.

With `COc1cc2c(cc1OC)C(=O)N(c1ccc(O)cc1)C2`, the GI50 in assay [1], in assay [2], in assay [4], in assay [5], in [6] and in assay [7] was > 100 µM (inactive) each time. The GI50 in [8], in assay [9], in [10], in assay [11], in [12] and in assay [13] was > 100 µM (inactive) in each case. The GI50 in assay [14], in assay [15], in [16], in assay [17], in assay [18] and in assay [19] was > 100 µM (inactive) in each case.
